EP0292365A2, “4-Amino-5,8-quinazolindione derivatives, process for their preparation and pharmaceutical compositions containing them” (CENTRE NATIONAL DE LA RECHERCHE SCIENTIFIQUE, priority 1987, dated 1988)

What was measured:
[1] = tested on: cellules leucémiques L 1210; experiment: In vitro cytotoxicity: growth inhibition of L 1210 leukemia cells (Coulter count); assay type: cell-based, souris; conditions: Mus musculus, L1210, 48 h, read-out: CI50 après 48 h de culture
Procedure: La détermination de la cytotoxicité in vitro sur les cellules leucémiques L 1210 est la méthode utilisée pour sélectionner les molécules potentiellement antitumorales. Le protocole mis en oeuvre est le suivant :
les cellules leucématiques L 1210 adaptées à la culture en suspension stationnaire sont entretenues dans du milieu RPMI 1640 (commercialisé par Seromed) additionné de 20 % de sérum de cheval décomplémenté, L-glutamine (2 mM), pénicilline (200 U/ml), streptomycine (50µg/ml) et cultivées à 37° C dans une atmosphère à 5 % de C02. Les cultures testées par la méthode de BARILE (BARILE M.F. Mycoplasmal contamination of cell culture, in Contamination in Tissue Culture, J. Fogh (ed.) Acad. Press, 132-156, 1973) sont exemptes de contaminations bactériennes et mycoplasmiques.
Pour les expérimentations, les cellules sont ensemencées à la concentration de 0,8.10^5 cellules/ml et cultivées par 2 ml dans des flacons de 15 ml. Les substances à étudier sont dissoutes dans du DMSO (1 % final) dont on a préalablement vérifié l'innocuité. Des quantités croissantes de produit à tester sont ajoutées au temps 0 et des numérations sont faites au compteur COULTER après 24 et 48 heures de culture. Des séries de contrôle sont effectuées avec des quantités de DMSO équivalentes à celles des séries traitées.
Le temps de doublement des cellules témoins est approximativement de 12 heures.
La cytotoxicité est déterminée d'après l'inhibition de croissance des cellules L 1210, calculée par rapport aux témoins correspondants selon la formule : [formula] • T = concentration de cellules non traitées, • t = concentration de cellules traitées.
La concentration de produit qui diminue la croissance cellulaire de 50 % (Clso) est calculée d'après la méthode des régressions linéaires en coordonnées log-probit.
Lorsque la Cl50 est voisine de la micromolarité (égale ou inférieure à 1 µM), il existe une présomption d'activité antitumorale et les essais in vivo indiqués ci-après sont effectués.
A titre d'exemple, la CI50 mesurée 48 heures après traitement des cellules par les composés de l'invention testés est la suivante : […]

Mélanome B16 = assay type: in vivo, souris BDF1
Text: Afin de tester l'activité antitumorale des composés décrits plus haut, on a utilisé les leucémies murines P388 et L1210, ainsi que le mélanome murin B16. La leucémie P388 est considère comme très sensible et permet une première sélection. D'autre part, une substance ayant une grande activité sur la leucémie L1210 a une grande chance d'être active en clinique humaine (J.M. Venditti; Relevance of transplantable animal tumor systems to the Selection of new agents for clinical trial in pharmacological basis of cancer chemotherapy. The University of Texas ed. Williams and Wilkins, publ. 1975, Baltimore USA).
Cette étude a été réalisée sur 1, 2 ou 3 tumeurs murines expérimentales selon le schéma suivant :
Les produits en solution dans l'eau ou en suspension dans du Klucel sont administrés par voie intrapéritonéale 24 heures après la greffe des cellules tumorales (10 animaux par série), soit en injection unique (J1), soit pendant 9 jours consécutifs (Ji-9). Les morts sont relevés chaque jour à la même heure. La comparaison du temps médian de survie des souris témoins (C) et des souris traitées (T) permet d'apprécier l'activité antitumorale du produit. On adopte comme critère d'activité minimale la valeur de T/C supérieure ou égale à 125 % conformément aux critères établis par GERAN et par l'O.M.S. (Réf. GERAN R.I., GREENBERG N.H., MACDONALD M.M., SCHUMACHER A.M. and ABBOTT B.J. Protocols for screening chemical agents and natural products against animal tumors and other biological systems. Cancer Chemother. Rep. Part 3, 3, 1-103 (1972)).
Lorsque le composé est actif sur plusieurs tumeurs, son administration par d'autres voies que la voie intrapéritonéale (i.p.) est envisagée : orale (p.o) et intraveineuse (i.v). Les résultats des essais effectués à l'aide du composé 63 sont rassemblés dans le tableau IV ci-après.
Dans les tableaux IV et IV Bis, P représentent la variation de poids entre J1 et J5 des animaux traités; lorsque P est supérieure à environ 4 g, cela signifie que la dose à laquelle le composé a été testé est toxique.

réticulosarcome M 5076 = experiment: First trials on reticulosarcoma M 5076; assay type: in vivo; conditions: souris; doses infratoxique; premiers essais
[2] = Solubility in water (statement); assay type: physicochemical
[3] = B16, greffe ip(susp. au 1/10), ip J1-9, dose optimale 0,2 mg/kg/inj.

CN(C)CCCNc1ncnc2c1C(=O)C(N1CC1)=C(N1CC1)C2=O [composé 63]
IC50 [1]: 2.7 nM
survivants 60 jours (Mélanome B16; [3]): 2
Δ P J1-J5 (Mélanome B16; [3]): 0 g
T/C (Mélanome B16; B16, greffe ip(susp. au 1/10), ip J1-9, dose optimale 0,2 mg/kg/inj., survivants inclus): 192%
Doses actives (T/C ≥ 125 %) (Mélanome B16; B16, greffe ip(susp. au 1/10), traitement ip J1-9): 0,05-0,8 mg/kg/inj.
activité sur le mélanome B16 (Mélanome B16; summary): très efficace
activité sur le réticulosarcome M 5076 (réticulosarcome M 5076): nette activité
solubilité dans l'eau [2]: hydrosoluble
